Patent publication US20260250277A1, “HYDRAZINO GROUP-CONTAINING COMPOUND” (CHIA TAI TIANQING PHARMACEUTICAL GROUP CO., LTD., priority 2022, published 2026)
Read-outs that look alike come from different tables or passages of the source.

Assays:
ATM kinase = ATM kinase (Homo sapiens, UniProt Q13315); assay: Inhibitory activity against ATM kinase (p53 substrate, HTRF); assay type: biochemical
Description: (§1) ATM kinase solution (concentration: 25 ng/μL) was added to assay wells at 6 μL/well, and different compounds dissolved in DMSO were added to the assay wells separately using a nanoliter pipettor, such that the final concentrations of the compounds were 10000 nM to 2.44 nM. In this experiment, the wells were set in duplicate, and a control well was set. After incubation of the above system for 30 min at room temperature, ATP (100 μM) was mixed with p53 substrate (50 nM) at a ratio of 1:1, and the mixture was added at 4 μL/well. The resulting mixture was left to react at room temperature for 2 h, and then 5 μL of EDTA was added to terminate the reaction, followed by addition of 5 μL of detection antibodies, Mab Anti-phospho p53 and Mab Anti GST-d2 (manufacturer: perkinelmer). The mixture was incubated at room temperature for 1 h. The plate was read using a PerkinElmer Envision multifunctional microplate reader (excitation: 320 nm, emission: 620 nm/665 nm), and IC50 was calculated by four-parameter fitting.

[1] = target: ATR/ATPIP (ATR-interacting protein) kinase (Homo sapiens, UniProt Q13535); assay: Inhibitory activity against ATR kinase (p53 substrate, HTRF); assay type: biochemical
Description: as §1, with “ATR/ATPIP (ATR-interacting protein)” for “ATM”, “50” for “25”, “(5” for “(100”

[2] = In vivo pharmacokinetics (Table 4); conditions: plasma; for MRT last: read-out: MRT(0-t); for Vd: read-out: Vz
[3] = tested on: CHK2 phosphorylation of NCI-H2228 cells; assay: Inhibitory activity against CHK2 phosphorylation of NCI-H2228 cells (p-CHK2 Thr68 AlphaLISA); assay type: cell-based; conditions: Homo sapiens
Description: NCI-H2228 cells in a good growth state were collected, added to a centrifuge tube, adjusted to a cell density of 1.25×10^6 cells/mL, and seeded in a 384-well plate (8 μL/well). The cells were equilibrated in a cell incubator for 1.5 h, and then compounds were added using a nanoliter pipettor, such that the final concentrations of the compounds were 200 nM to 0.049 nM. In this experiment, the wells were set in duplicate, and a control well was set. After the mixture was further cultured for 1 h in the cell incubator, an assay was performed using a p-CHK2 (Thr68) assay kit (manufacturer: perkinelmer) and the Envision microplate reader AlphaLISA program. A four-parameter analysis was performed, a dose-response curve was fit, and IC50 was calculated.

[4] = target: DNA-PK (DNA-dependent protein kinase) (Homo sapiens, UniProt P78527); assay: Inhibitory activity against DNA-PK (p53 substrate, HTRF); assay type: biochemical
Description: as §1, with “DNA-PK” for “ATM”, “0.15” for “25”

ATM kinase, sequence (Q13315 whole entry): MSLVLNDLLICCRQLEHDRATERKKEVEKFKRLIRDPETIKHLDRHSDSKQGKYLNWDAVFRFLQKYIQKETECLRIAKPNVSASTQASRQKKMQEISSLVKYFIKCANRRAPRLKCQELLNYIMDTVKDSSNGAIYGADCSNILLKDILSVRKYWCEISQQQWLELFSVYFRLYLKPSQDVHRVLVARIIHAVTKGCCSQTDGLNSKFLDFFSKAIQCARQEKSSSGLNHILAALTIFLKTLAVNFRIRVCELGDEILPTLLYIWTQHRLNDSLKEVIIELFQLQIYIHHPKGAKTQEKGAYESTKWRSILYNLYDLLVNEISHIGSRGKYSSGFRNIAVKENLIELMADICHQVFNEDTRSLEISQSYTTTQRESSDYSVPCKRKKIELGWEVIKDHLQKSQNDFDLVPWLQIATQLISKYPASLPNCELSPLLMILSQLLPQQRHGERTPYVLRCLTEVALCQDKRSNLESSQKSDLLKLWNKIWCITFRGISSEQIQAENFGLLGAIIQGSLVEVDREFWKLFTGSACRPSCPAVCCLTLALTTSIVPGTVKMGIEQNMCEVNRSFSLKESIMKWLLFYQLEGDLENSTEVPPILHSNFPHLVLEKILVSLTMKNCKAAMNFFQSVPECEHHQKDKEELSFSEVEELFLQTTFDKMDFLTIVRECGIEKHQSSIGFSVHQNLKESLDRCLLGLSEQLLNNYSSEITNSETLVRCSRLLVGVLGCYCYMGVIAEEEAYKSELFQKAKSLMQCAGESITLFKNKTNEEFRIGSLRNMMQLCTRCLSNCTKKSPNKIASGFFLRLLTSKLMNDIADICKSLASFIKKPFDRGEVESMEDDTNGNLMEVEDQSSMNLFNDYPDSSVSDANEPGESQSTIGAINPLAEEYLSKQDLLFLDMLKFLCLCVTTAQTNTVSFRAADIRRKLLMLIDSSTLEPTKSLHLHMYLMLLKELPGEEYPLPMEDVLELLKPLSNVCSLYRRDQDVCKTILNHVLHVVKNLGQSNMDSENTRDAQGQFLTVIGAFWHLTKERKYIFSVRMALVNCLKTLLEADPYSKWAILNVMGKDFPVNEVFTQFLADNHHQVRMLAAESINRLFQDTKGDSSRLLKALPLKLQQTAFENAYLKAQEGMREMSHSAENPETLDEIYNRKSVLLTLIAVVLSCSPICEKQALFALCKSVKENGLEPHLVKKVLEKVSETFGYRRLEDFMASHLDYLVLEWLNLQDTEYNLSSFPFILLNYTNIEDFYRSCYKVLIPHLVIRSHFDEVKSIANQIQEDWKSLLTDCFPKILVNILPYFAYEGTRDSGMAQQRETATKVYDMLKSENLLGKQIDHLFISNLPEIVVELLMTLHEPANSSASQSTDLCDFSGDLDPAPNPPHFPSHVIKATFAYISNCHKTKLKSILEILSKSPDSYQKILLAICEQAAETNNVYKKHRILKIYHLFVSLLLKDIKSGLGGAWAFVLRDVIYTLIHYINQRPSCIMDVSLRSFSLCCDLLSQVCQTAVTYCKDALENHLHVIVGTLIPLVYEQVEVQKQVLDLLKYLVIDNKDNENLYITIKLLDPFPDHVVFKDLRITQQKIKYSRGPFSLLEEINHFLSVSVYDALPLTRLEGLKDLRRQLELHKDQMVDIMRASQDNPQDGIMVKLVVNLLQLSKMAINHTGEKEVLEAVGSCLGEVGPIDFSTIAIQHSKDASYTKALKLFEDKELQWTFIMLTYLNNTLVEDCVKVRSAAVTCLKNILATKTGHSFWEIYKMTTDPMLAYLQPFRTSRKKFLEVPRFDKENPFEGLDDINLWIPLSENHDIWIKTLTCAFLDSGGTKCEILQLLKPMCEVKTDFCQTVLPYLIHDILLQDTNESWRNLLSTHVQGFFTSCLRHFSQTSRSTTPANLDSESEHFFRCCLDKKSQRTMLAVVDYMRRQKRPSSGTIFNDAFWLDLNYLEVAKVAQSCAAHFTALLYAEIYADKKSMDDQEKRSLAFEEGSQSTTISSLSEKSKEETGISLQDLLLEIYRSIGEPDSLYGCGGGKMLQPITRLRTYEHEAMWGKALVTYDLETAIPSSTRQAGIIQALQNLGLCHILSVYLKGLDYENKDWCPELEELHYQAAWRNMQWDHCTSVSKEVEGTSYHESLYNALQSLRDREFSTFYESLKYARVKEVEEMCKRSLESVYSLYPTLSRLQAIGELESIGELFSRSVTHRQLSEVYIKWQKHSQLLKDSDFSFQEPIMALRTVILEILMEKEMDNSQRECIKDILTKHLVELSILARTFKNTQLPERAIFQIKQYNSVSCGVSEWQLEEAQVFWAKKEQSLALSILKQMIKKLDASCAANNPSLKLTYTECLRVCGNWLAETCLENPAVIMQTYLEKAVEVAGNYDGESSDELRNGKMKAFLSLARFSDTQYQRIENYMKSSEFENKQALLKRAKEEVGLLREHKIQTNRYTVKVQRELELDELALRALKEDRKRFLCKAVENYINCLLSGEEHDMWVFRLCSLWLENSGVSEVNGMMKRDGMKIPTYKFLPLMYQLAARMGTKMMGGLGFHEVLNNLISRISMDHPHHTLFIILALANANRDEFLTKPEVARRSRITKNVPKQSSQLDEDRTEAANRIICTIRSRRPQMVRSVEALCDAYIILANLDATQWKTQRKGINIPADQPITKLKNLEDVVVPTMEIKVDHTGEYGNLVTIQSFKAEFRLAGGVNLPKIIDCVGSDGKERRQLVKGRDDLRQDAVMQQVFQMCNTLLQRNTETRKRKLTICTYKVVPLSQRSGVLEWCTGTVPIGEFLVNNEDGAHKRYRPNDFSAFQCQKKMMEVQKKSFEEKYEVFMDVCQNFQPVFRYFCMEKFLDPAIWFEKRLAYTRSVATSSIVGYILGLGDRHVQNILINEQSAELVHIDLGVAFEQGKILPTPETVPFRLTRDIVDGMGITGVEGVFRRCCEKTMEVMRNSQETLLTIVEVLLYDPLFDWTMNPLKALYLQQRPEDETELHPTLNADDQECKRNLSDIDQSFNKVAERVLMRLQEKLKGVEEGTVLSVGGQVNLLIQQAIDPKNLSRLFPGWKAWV

Row | SMILES | IC50 (ATM kinase) [nM] | IC50 [1] [nM] | AUC(0-inf) ([2]; iv, 1 mg/kg) [ng·h/mL] | AUC(0-t) ([2]; iv, 1 mg/kg) [ng·h/mL] | half-life ([2]; iv, 1 mg/kg) [min] | MRT last ([2]; iv, 1 mg/kg) [h] | Vd ([2]; iv, 1 mg/kg) [L/kg] | AUC(0-inf) ([2]; po, IG, 10 mg/kg) [ng·h/mL] | AUC(0-t) ([2]; po, IG, 10 mg/kg) [ng·h/mL] | Cmax ([2]; po, IG, 10 mg/kg) [ng/mL] | Tmax ([2]; po, IG, 10 mg/kg) [h] | half-life ([2]; po, IG, 10 mg/kg) [min] | MRT last ([2]; po, IG, 10 mg/kg) [h] | IC50 [3] [nM] | IC50 [4] [nM]
1 | CC(C)n1c(=O)n(N)c2cnc3cc(F)c(-c4ccc(OCCCN5CCCCC5)nc4)cc3c21 [Example 2] | < 50 | 821 | 539 | 521 | 102 | 2.11 | 4.55 | 4270 | 4150 | 521 | 0.5 | 275 | 6.1 | < 50 | > 1000
2 | CC(C)n1c(=O)n(N)c2cnc3cc(F)c(-c4ccc(OCCCN5CCCC5)nc4)cc3c21 [Example 3] | < 50 | > 1000 | 460 | 445 | 104 | 2.1 | 5.45 | 4330 | 4250 | 495 | 1 | 241 | 6.05 | < 50 | > 1000
3 | Nn1c(=O)n(C2CC2)c2c3cc(-c4ccc(OCCCN5CCCCC5)nc4)c(F)cc3ncc21 [Example 18] | < 50 | > 1000 | 624 | 587 | 130 | 1.89 | 3.9 | 4500 | 4460 | 506 | 4 | 211 | 4.99 | < 50 | > 1000
4 | Nn1c(=O)n(C2CC2)c2c3cc(-c4ccc(OCCCN5CCCC5)nc4)c(F)cc3ncc21 [Example 19] | < 50 | > 1000 | 474 | 451 | 123 | 1.84 | 4.82 | 4000 | 3980 | 485 | 4 | 184 | 4.72 | < 50 | > 1000
